Assay results taken from article PMC4941420, “A Rational Approach for the Identification of Non-Hydroxamate HDAC6-Selective Inhibitors” (Scientific Reports, 2016).

Key:
[1] = Cytotoxicity XTT, HEK 293; type: cell-based; conditions: human, HEK 293 cells (ATCC CRL-1573), mean ± SD of 3 independent experiments in triplicate, read-out: cytotoxic IC50 HEK 293
Method: (§1) HeLa and HEK 293 cells (ATCC CRL-1573) were cultured as described above and seeded into 96-well plates at 400 cells/well. Test and standard compounds were added to plate wells in triplicate (0.05% DMSO in culture medium) in a range of six concentrations. Following 72 h of incubation, […] of an activated XTT solution was added to the cells (1 mg/mL). The absorbance was measured at 450 nm after 2 h incubation at 37 °C. The growth of the compound-treated cells was compared with the growth of vehicle-treated control cells. IC50 values were calculated with GraphPad Prism 6.0.

[2] = Cytotoxicity XTT, HeLa; type: cell-based, human; conditions: human, HeLa cells, mean ± SD of 3 independent experiments in triplicate, read-out: cytotoxic IC50 HeLa
Method: as §1

[3] = tested on: HDAC6; conditions: cited from earlier work
[4] = tested on: α-tubulin acetylation in HeLa cells; experiment: Acetyl-α-tubulin sandwich ELISA in HeLa cells; type: cell-based, human; conditions: 25 μM, 48 h
Method: The acetyl-α-tubulin sandwich ELISA Kit (Pathscan® #7204, Cell Signalling) was used to determine tubulin acetylation levels, and Western blotting was used to evaluate histone H4 acetylation, both methods applied to lysates of treated and non-treated HeLa cells (ATCC CCL-2). Cells were cultured in DMEM medium, 4.5 g/L glucose, L-glutamine (Invitrogen), supplemented with 10% heat-inactivated fetal bovine serum (FBS, Biowest), 100 units/mL penicillin, and 100 μg/mL streptomycin, and 1% non-essential amino acids (Invitrogen) at 37 °C with 5% CO2. Prior to ELISA experiments, cells were seeded into 6-well plates at 150,000 cells/well and transfected with the HDAC6-GFP construct (pEGFP.N1-HDAC6, Addgene)[58], using the Lipofectamine 2000 reagent (Invitrogen). Cells were then treated with test compounds, standards or vehicle (0.5% DMSO in culture medium) for 48 h. After the incubation time, cells were washed with cold DPBS (Invitrogen) and lysates were obtained by recovering cells in cold lysis buffer provided in the ELISA kit, supplemented with a protease inhibitor tablet (SigmaFast, Sigma Aldrich). Briefly, cells were harvested in DPBS and centrifuged. The cell pellet was suspended in 100 μL lysis buffer, vortexed, and kept on melting ice for 30 min. Lysates were then obtained by recovering the supernatant after a centrifugation step of 10 min at 11,000 g, 4 °C. Protein concentration was determined by fluorimetry using the Qubit protein assay kit (Invitrogen). Cell lysates were tested at 1 mg/mL following the instructions provided by the ELISA kit manufacturer. For the Western blotting, cells were seeded into 100 mm Petri dishes and treated for 6 h. After the incubation time, cells were washed with cold DPBS (Invitrogen) supplemented with a protease inhibitor tablet (Sigma Fast, Sigma Aldrich), and lysates were obtained by recovering cells in 100 μL cold lysis buffer (10 mM Hepes pH 7.9, 1.5 mM MgCl2, 10 mM KCl, 0.5 mM DTT, 1.5 mM PMSF, 0.2M HCl) the same way as described above. […]

[5] = tested on: HEK 293 cells; experiment: Cytotoxicity XTT, HEK 293; type: cell-based; conditions: 72 h, mean ± SD of 3 independent experiments in triplicate, read-out: cytotoxic IC50 HEK 293
Method: as §1

[6] = tested on: HeLa cells; experiment: Cytotoxicity XTT, HeLa; type: cell-based, human; conditions: 72 h, mean ± SD of 3 independent experiments in triplicate, read-out: cytotoxic IC50 HeLa
Method: as §1

Compound	IC50 at 72 h [1] [nM]	IC50 at 72 h [2] [µM]	IC50 [3] [nM]	tubulin acetylation [4]	IC50 [5] [nM]	IC50 [6] [nM]
CN1CCc2c(c3ccccc3n2Cc2ccc(C(=O)NO)cc2)C1 [Tubastatin A]	2400 ± 600	11.2 ± 0.4	[…]	able to induce tubulin acetylation		
CC(/C=C/C(=O)NO)=C\[C@@H](C)C(=O)c1ccc(N(C)C)cc1 [Trichostatin A]					300 ± 20	1500 ± 300
